“Also recorded” adds a separate entry of the source.
Legend:
MPTP lesioned mice = assay: Neuroprotective effects in MPTP lesioned mice (mouse model of Parkinson's disease); assay type: in vivo; conditions: for TH+ neuron density in substantia nigra (mean): 8 day ip MPTP, histology on treatment day 11
Procedure: To test the possible therapeutic potential of AC-0523 a small pilot experiment was performed examining the potential neuroprotective effects of AC-0523 in a mouse model of Parkinson's disease (PD). 1-methyl-4-phenyl-1,2,3,6-tetrahydropyridine (MPTP), blocks complex I (NADH-ubiquinone oxidoreductase) of the mitochondrial electron transport chain, and causes typical symptoms of (PD) and the loss of dopaminergic neurons.
Systemic injection of MPTP, upon conversion to MPP+, produces a loss of nigrostriatal dopamine (DA) nerve terminals and eventual death of […] dopaminergic neurons. This neuropathology mimics conditions in the dopamine denervated striatum of human PD patients, and produces […] and postural instability. Assays for tyrosine hydroxylase (TH), the enzyme responsible for catalyzing the production of dopamine, and quantification of TH-containing cells in the SNc are performed to measure the extent of […] dopaminergic neurodegeneration.
A parallel group design was used. After acclimation in the facility, subjects were tested on the Rotarod and activity tasks. On the second day of test treatment, all subjects began an 8 day ip administration of MPTP or saline. Fifteen minutes before MPTP or saline treatment and 2.75 hours after, subjects received either the test compound or saline. On the first and ninth treatment day blood draws were taken for subsequent monitoring of β-hydroxybutyrate. On treatment day 11 all subjects were euthanized and histology was preformed on a small number of test animals.

[1] = Mouse pharmacokinetic (PK) study: blood ketone bodies after po and ip dosing; assay type: in vivo; conditions: ICR male mice, single po dose (2.5, 5, 10 ml/kg) or single ip dose (1 g/kg); plasma; as early as 15 minutes
Procedure: The inventor examined the blood levels of ketone bodies after oral (po) and intraperitoneal (ip) dosing of monoacetoacetin at different time points in the mouse.
ICR male mice 6 to 7 weeks old were used. Each mouse weighed between 20-30 grams. Animals were housed 3 per cage and were acclimated for at least 3 days prior to dosing. Mice were given either a single po dose (ranging from 2.5, 5 and 10 ml/kg) of compound, or a single ip dose (1 g/kg). Animals were anesthetized for blood collection at the times 15, 30, 60 and 180 minutes. Whole blood (˜0.4 mls) was collected via cardiac puncture and collected into sodium heparin anticoagulant (Na Heparin, 1:9 ratio). Blood was centrifuged for 8 minutes at 13,000 rpm to isolate plasma. The plasma was transferred into pre-labeled, color-coded eppendorf tubes and frozen at −70° C. […] Plasma levels of beta-hydroxybutyrate (BHB) were determined using a beta-hydroxybutyrate detection kit following manufacturer's directions (StanBio Inc.).

[2] = MPTP-treated mice, listed as AC-0523

## CC(=O)CC(=O)OCC(O)CO (stereo not drawn) [Monoacetoacetin, 2,3-dihydroxypropyl 3-oxobutanoate]
MPTP lesioned mice
  TH-positive cell counts in the SNc versus MPTP-treated mice who received only saline or AC-1202: higher
MPTP lesioned mice; MPTP-treated mice
  density of TH in the caudate-putamen: highest
MPTP lesioned mice; MPTP-treated mice, listed as AC0523
  TH+ neuron density in substantia nigra (mean): 111.000
MPTP lesioned mice; [2]
  TH+ neuron density in substantia nigra (mean): 111±20
  protection of tyrosine hydroxylase (TH) expressing cells from MPTP toxicity / neuroprotection: protected tyrosine hydroxylase (TH) expressing cells from MPTP toxicity; also recorded: neuroprotective
[1]
  circulating BHB levels: significant increases

From patent publication US9125881B2, “Monoglyceride of acetoacetate and derivatives for the treatment of neurological disorders” (Accera, Inc., priority 2008, dated 2015)
